The structures appear in SMILES notation.

Here are results for 31 compounds from US20190194179A1, “ANTIBIOTIC COMPOUNDS” (DISCUVA LTD., priority 2016, published 2019).

This assay concerns Neisseria gonorrhoeae. In words: EC50 determination: plate-based broth growth assay (absorbance at 600 nm) of Neisseria gonorrhoeae. In kind it is cell-based. Particulars: absorbance 600 nm after 20 hours at 37° C./5% CO2, read-out: IC50 (Inhibitory concentration) against Neisseria gonorrhoeae. A digest of the protocol: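 Mid-log culture diluted to ~10^5 cells/ml as inoculum and grown 20 hours at 37° C./5% CO2 across a 10-point compound dilution series. Growth read as absorbance at 600 nm; EC50 taken from transformed data as the concentration giving 50% response relative to no-compound controls.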
Take `Cc1cnc(Nc2nc3cc(C(F)(F)F)ccc3o2)o1` [Example 112, N-(5-Methyloxazol-2-yl)-5-(trifluoromethyl)benzo[d]oxazol-2-amine]: the IC50 was at most 1000 nM. In the case of `Cc1nc(Nc2nc3cc(C(F)(F)F)ccc3o2)oc1C` [Example 113, N-(4,5-Dimethyloxazol-2-yl)-5-(trifluoromethyl)benzo[d]oxazol-2-amine], the IC50 is at most 1000 nM. For the compound `FC(F)(F)c1ccc2nc(Nc3nnco3)oc2c1` [Example 114, N-(1,3,4-Oxadiazol-2-yl)-6-(trifluoromethyl)benzo[d]oxazol-2-amine], the IC50 was at most 1000 nM. Consider `Clc1ccc2nc(Nc3nnco3)oc2c1` [Example 115, 6-Chloro-N-(1,3,4-oxadiazol-2-yl)benzo[d]oxazol-2-amine], for which the IC50 was at most 1000 nM.

Consider `FC(F)(F)c1ccc2oc(Nc3nnc[nH]3)nc2c1` [Example 116, N-(4H-1,2,4-Triazol-3-yl)-5-(trifluoromethyl)benzo[d]oxazol-2-amine], for which the IC50 was at most 1000 nM. Turning to `Cc1nnc(Nc2nc3c(C(F)(F)F)cccc3o2)o1` [Example 118, N-(5-Methyl-1,3,4-oxadiazol-2-yl)-4-(trifluoromethyl)benzo[d]oxazol-2-amine], the IC50 is at most 10000 nM. Consider `Cc1nnc(Nc2nc3c(Cl)cccc3o2)o1` [Example 119, 4-Chloro-N-(5-methyl-1,3,4-oxadiazol-2-yl)benzo[d]oxazol-2-amine], for which the IC50 was at most 1000 nM. `Clc1cccc2oc(Nc3nnco3)nc12` [Example 120, 4-Chloro-N-(1,3,4-oxadiazol-2-yl)benzo[d]oxazol-2-amine]: the IC50 is at most 1000 nM. Consider `Cc1nnc(Nc2nc3cccc(Cl)c3o2)[nH]1` [Example 121, 7-Chloro-N-(5-methyl-4H-1,2,4-triazol-3-yl)benzo[d]oxazol-2-amine], for which the IC50 was at most 100 nM. To `Cc1nnc(Nc2nc3ccc(Cl)cc3o2)[nH]1` [Example 122, 6-Chloro-N-(5-methyl-4H-1,2,4-triazol-3-yl)benzo[d]oxazol-2-amine] belongs at most 10000 nM; to `Cc1nnc(Nc2nc3c(Cl)cc(Cl)cc3o2)[nH]1` [Example 123, 4,6-Dichloro-N-(5-methyl-4H-1,2,4-triazol-3-yl)benzo[d]oxazol-2-amine], at most 1000 nM; to `Cc1nnc(Nc2nc3c(F)cccc3o2)[nH]1` [Example 124, 4-Fluoro-N-(5-methyl-4H-1,2,4-triazol-3-yl)benzo[d]oxazol-2-amine], at most 1000 nM. In the case of `Cc1nnc(Nc2nc3cc(C(F)(F)F)c(Cl)cc3o2)[nH]1` [Example 125, 6-chloro-N-(5-methyl-4H-1,2,4-triazol-3-yl)-5-(trifluoromethyl)benzo[d]oxazol-2-amine], the IC50 was at most 100 nM. To `CN1CCC[C@H]1c1nnc(Nc2nc3cc(C(F)(F)F)ccc3o2)o1` [Example 126, (S)-N-(5-(1-Methylpyrrolidin-2-yl)-1,3,4-oxadiazol-2-yl)-5-(trifluoromethyl)benzo[d]oxazol-2-amine] belongs at most 1000 nM; to `CN1CCC[C@@H]1c1nnc(Nc2nc3cc(C(F)(F)F)ccc3o2)o1` [Example 127, (R)-N-(5-(1-methylpyrrolidin-2-yl)-1,3,4-oxadiazol-2-yl)-5-(trifluoromethyl)benzo[d]oxazol-2-amine], at most 1000 nM; to `FC(F)(F)c1ccc2oc(Nc3nnc(CN4CCCC4)[nH]3)nc2c1` [Example 128, N-(5-(Pyrrolidin-1-ylmethyl)-4H-1,2,4-triazol-3-yl)-5-(trifluoromethyl)benzo[d]oxazol-2-amine], at most 1000 nM. With `Clc1cc(Cl)c2nc(Nc3nnc(CN4CCCC4)[nH]3)oc2c1` [Example 129, 4,6-diChloro-N-(5-(pyrrolidin-1-ylmethyl)-4H-1,2,4-triazol-3-yl)benzo[d]oxazol-2-amine], the IC50 is at most 1000 nM.

Regarding `Clc1cccc2oc(Nc3nnc(CN4CCCC4)[nH]3)nc12` [Example 130, 4-Chloro-N-(5-(pyrrolidin-1-ylmethyl)-4H-1,2,4-triazol-3-yl)benzo[d]oxazol-2-amine], the IC50 was at most 10000 nM.

On to `Clc1cccc2nc(Nc3nnc(CN4CCCC4)[nH]3)oc12` [Example 131, 7-Chloro-N-(5-(pyrrolidin-1-ylmethyl)-4H-1,2,4-triazol-3-yl)benzo[d]oxazol-2-amine], for which the IC50 is at most 1000 nM. For the compound `Clc1ccc2nc(Nc3nnc(CN4CCCC4)[nH]3)oc2c1` [Example 132, 6-Chloro-N-(5-(pyrrolidin-1-ylmethyl)-4H-1,2,4-triazol-3-yl)benzo[d]oxazol-2-amine], the IC50 was at most 1000 nM. Turning to `O=C(c1nnc(Nc2nc3c(Cl)cc(Cl)cc3o2)o1)N1CCCC1` [Example 133, (5-((4,6-Dichlorobenzo[d]oxazol-2-yl)amino)-1,3,4-oxadiazol-2-yl)(pyrrolidin-1-yl)methanone], the IC50 is at most 1000 nM. Consider `O=C(c1nnc(Nc2nc3c(Cl)cccc3o2)o1)N1CCCC1` [Example 134, (5-((4-Chlorobenzo[d]oxazol-2-yl)amino)-1,3,4-oxadiazol-2-yl)(pyrrolidin-1-yl)methanone], for which the IC50 was at most 10000 nM. As to `Clc1ccc2oc(Nc3nnco3)nc2c1` [Example 135, 5-Chloro-N-(1,3,4-oxadiazol-2-yl)benzo[d]oxazol-2-amine], the IC50 is at most 100 nM. To `CN(C)Cc1nnc(Nc2nc3cc(C(F)(F)F)ccc3o2)[nH]1` [Example 136, N-(5-((Dimethylamino)methyl)-4H-1,2,4-triazol-3-yl)-5-(trifluoromethyl)benzo[d]oxazol-2-amine] belongs at most 1000 nM; to `FC(F)(F)c1cc2nc(Nc3nnc(CN4CCCC4)[nH]3)oc2cc1Cl` [Example 137, 6-Chloro-N-(5-(pyrrolidin-1-ylmethyl)-4H-1,2,4-triazol-3-yl)-5-(trifluoromethyl)benzo[d]oxazol-2-amine], at most 100 nM.

For `FC(F)(F)c1cc2nc(Nc3nnco3)oc2cc1Cl` [Example 138, 6-Chloro-N-(1,3,4-oxadiazol-2-yl)-5-(trifluoromethyl)benzo[d]oxazol-2-amine], the IC50 was at most 100 nM. As for `CC(C)c1nnc(Nc2nc3cc(C(F)(F)F)c(Cl)cc3o2)[nH]1` [Example 139, 6-Chloro-N-(5-isopropyl-4H-1,2,4-triazol-3-yl)-5-(trifluoromethyl)benzo[d]oxazol-2-amine], the IC50 is at most 1000 nM.

For `Cn1cnc(Nc2nc3cc(C(F)(F)F)c(Cl)cc3o2)c1` [Example 140, 6-Chloro-N-(1-methyl-1H-imidazol-4-yl)-5-(trifluoromethyl)benzo[d]oxazol-2-amine], the IC50 was at most 1000 nM. For the compound `Cc1nnc(Nc2nc3c(C)cc(Cl)cc3o2)[nH]1` [Example 141, 6-Chloro-4-methyl-N-(5-methyl-4H-1,2,4-triazol-3-yl)benzo[d]oxazol-2-amine], the IC50 is at most 1000 nM. For `COCCn1c(C)nnc1Nc1nc2cc(C(F)(F)F)c(Cl)cc2o1` [Example 142, 6-Chloro-N-(4-(2-methoxyethyl)-5-methyl-4H-1,2,4-triazol-3-yl)-5-(trifluoromethyl)benzo[d]oxazol-2-amine], the IC50 was at most 1000 nM. For `Cc1nnc(Nc2nc3cc(C(F)(F)F)ccc3o2)n1C` [Example 143, N-(4,5-dimethyl-4H-1,2,4-triazol-3-yl)-5-(trifluoromethyl)benzo[d]oxazol-2-amine], the IC50 is at most 1000 nM.
